Assay results taken from article PMC9534960, “De Novo Design of an Androgen Receptor DNA Binding Domain‐Targeted peptide PROTAC for Prostate Cancer Therapy” (Advanced Science, 2022).
No end group written: not given here.

How the values were obtained:
[1] = test system: AR in CWR22rv1 cells; assay: Immunoblot AR degradation, CWR22rv1; assay type: cell-based; details: immunoblot (Figure S16)
Protocol: H, I) IB analysis of WCLs from C4‐2 cells (H) and LNCaP cells (I) treated with CHX for the indicated times, with or without 250 nM Au‐AR DBD PROTAC drug treatment. The signal intensity of AR normalized to that of Vinculin was quantified. […] The signal intensities of AR and AR‐V7 normalized to that of Vinculin were quantified separately.
To investigate the AR cleavage ability of the Au‐AR DBD PROTAC drug, an immunoblot (IB) analysis of AR was performed. The primary antibody (catalog number:sc‐7305) targeting AR we used is raised against amino acids 299–315 of AR, so we could determine both AR and AR‐V7 at the same time.
Immunoblotting was performed to determine the AR amount after Au‐AR DBD PROTAC treatment. Cells were lysed in EBC buffer (50 mM Tris (pH 7.5), 120 mM NaCl, and 0.5% NP‐40) supplemented with protease inhibitors. Cell lysates were quantified by a Pierce bicinchoninic acid (BCA) Protein Assay Kit (Thermo Fisher). Equal amounts of total proteins were loaded for western blotting analysis. The proteins were separated by SDS‐PAGE gels. Then proteins were transferred to polyvinylidene fluoride (PVDF) membranes and incubated with specific primary antibodies at 4 °C overnight. After incubating with HRP‐conjugated secondary antibody for 1 h at room temperature, the protein immunoreactive signals were tested.

[2] = test system: C4‐2 xenografts; assay: C4‐2 subcutaneous xenograft, tumor growth; assay type: in vivo, nude mice; details: 2 mg kg^−1, subcutaneous injection, every three days for three weeks, n = 5 per group
Protocol: (§1) Two administration routes were tested in the xenograft models, with subcutaneous injection (SC.) in C4‐2 models and intraperitoneal injection (IP.) in CWR‐22rv1 models. […] Each injection volume was 100 µl and PBS was used as control.
(§2) IHC score analysis was performed by the Image J IHC profiler.
(§3) A) Tumor growth curves of C4‐2 xenografts in nude mice treated as indicated (n = 5 per group). Statistical analysis was performed using the nonparametric Kruskal‐Wallis test; ****, p < 0.0001. The data are presented as the mean ± SD values (n = 5). B) Photos of C4‐2 tumors excised at the end of the experiment after different drug treatments. C) Average weight of tumors excised from each group of mice at the end of drug treatment. The data are presented as the mean ± SD values (n = 5). […] IHC scores were determined with ImageJ: 4, highly positive; 3, positive; 2, minimally positive; 1, negative. […] […]
(§4) Treatment of five groups of mice (5 mice per group) was initiated (i.e., day 1) after tumors were established in 2 weeks as palpable masses (50 mm^3). […] The tumor length and width were measured with calipers, and the tumor volume was calculated using the following equation: tumor volume (V) = length × width^2/2. […] All IHC staining images were scored using ImageJ profiler as published protocol.

[3] = test system: CWR22Rv1 xenografts; assay: CWR22Rv1 subcutaneous xenograft, tumor growth; assay type: in vivo, nude mice; details: 2 mg kg^−1, intraperitoneal injection, every three days for three weeks, n = 5 per group
Protocol: as §1, §2, §3, §4

[4] = test system: AR ΔDBD; assay: ITC binding to AR ΔDBD; details: AR with mutation of amino acids (575‐591) in the DBD
Protocol: To determine the specificity of AR pep‐PROTAC, mutation of amino acids (575‐591) in the AR DBD plasmid was conducted.
ITC (isothermal titration calorimetry) was an established technique that can determine the binding ability between protein and ligands. The signal measured was the heat released upon the interaction of the two reactants. All proteins – MDM2, AR‐V7, or AR ΔDBD were obtained with E.Coli expression and purified by affinity chromatography. All peptides were synthesized by solid‐phase peptide synthesis and purified by preparative high‐performance liquid chromatography. For ITC experiments, clean sample cells and injection syringe were cleaned according to the manufacturer's protocol before loading protein and peptide. Rinse the sample cell several times with 2 ml of buffer. Load the sample cell with 0.2 ml of protein solution (all proteins concentration were around 20 µM), being careful to avoid bubble formation, load the syringe with 0.04 ml peptide solution (all peptides concentrations were around 200 µM). Choose the temperature at 25 °C for the ITC experiments. a small volume (0.4 µl) for the first injection was used and keep the subsequent injections at the desired volume (2 µl for 19 injections). Once the experiment had finished, the ITC data was fitted with the analysis software for the instrument.
Figure S20. Binding affinity between AR pep-PROTAC and AR-ΔDBD measured […]

Compound: N#Cc1ccc(O[C@H]2CC[C@H](NC(=O)c3ccc(N4CCC(CN5CCN(c6cc7c(cc6F)C(=O)N(C6CCC(=O)NC6=O)C7=O)CC5)CC4)nn3)CC2)cc1Cl (stereo partly shown) [ARV‐110]
- full‐length AR degradation in CWR22rv1 cells (in words) [1]: induced full‐length AR degradation

Compound: CNC(=O)c1ccc(N2C(=S)N(c3ccc(C#N)c(C(F)(F)F)c3)C(=O)C2(C)C)cc1F [enzalutamide]
- effect on tumor growth, C4‐2 xenograft [2]: inhibited tumor growth
- effect on tumor growth, CWR22Rv1 xenograft [3]: but not the CWR22Rv1 xenograft model

Compound: YLCSSNNNRERDKFRRGGSGGTSFEQFWAWLWP-NH2 (C-terminus assumed) [AR pep‐PROTAC]
- interaction with AR ΔDBD by ITC [4]: no interaction
